Assay results reported in patent publication US20250057808A1, “COMPOSITION COMPRISING BETA LACTAM FOR TREATING ALCOHOL DEPENDENCE AND ALCOHOL ASSOCIATED DISEASES OR CONDITIONS” (Temple University of the Commonwealth System of Higher …, priority 2023, published 2025).
“Also recorded” adds a separate entry of the source.

Experiments:
PPAR-α = test: Western blot PPAR-α expression in NAc-core, NAc-shell and liver; format: in vivo, P rats; conditions: MC-100093 50 mg/kg or ceftriaxone 200 mg/kg i.p. 5 days; among all groups
Procedure: We used micro-punch procedure to dissect the subregions of the NAc such as NAc-core and NAc-shell as well as the subregions of prefrontal cortex such as infralimbic (IL) and prelimbic (PL) from the brain on day 6 after the last injection day. P rats were removed from the cage and rapidly euthanized by CO2 inhalation followed by rapid decapitation with a guillotine. Brains were isolated and immediately frozen on dry ice and stored at −80° C. The stereotaxic coordinates provided by Paxinos and colleague's rat brain stereotactic atlas was used to isolate NAc-core and NAc-shell using a cryostat apparatus (−20° C.), which then kept at −80° C. for later western blot analyses.
Western Blot assay was performed to measure changes in the expression of GLT-1, xCT, mGluR1, mGluR5, PPAR-α, PPARγ, GAPDH and β-tubulin in the NAc-core and NAc-shell as described in previous publications. A lysis buffer containing protease and phosphatase inhibitors was used to generate a homogenate of liver, Nac-core, and Nac-shell samples. The amount of protein was quantified using a detergent compatible protein assay (Bio-Rad, Hercules, CA, USA) for each sample. Samples were mixed with laemmli dye and loaded with equal amounts on polyacrylamide gels (10%), which separated the proteins using electrophoresis. After that, polyvinylidene difluoride (PVDF) membranes were used to transfer the proteins electrophoretically from the gels. Membranes were incubated in 5% free-fat milk in Tris-buffered saline with Tween-20 (TBST) for 30-60 minutes at room temperature. Membranes were then incubated with appropriate primary antibodies overnight at 4° C.: rabbit anti-GLT-1 (1:5000, Abcam, ab41621), rabbit anti-xCT (1:2000, Abcam, ab175186), rabbit anti-mGluR1 (1:1000, Abcam, ab82211), rabbit anti-mGluR5 (1:1000, Abcam, ab76316), rabbit anti-PPAR-α (1:1000, Abcam, ab24509), and rabbit anti-PPARγ (1:1000, Abcam, ab209350). Mouse anti-β-tubulin (1:1000; BioLegend) was used as a loading control antibody for the brain samples and rabbit anti-GAPDH (1:5000; cell signaling) was used as a loading control antibody for the liver samples. Membranes were washed five times on the next day with TBST followed by incubation with appropriate secondary antibody (1:5000) for 90 minutes at room temperature. Chemiluminescent reagents (Super Signal West Pico, Pierce Inc.) were used to detect the proteins using a GeneSys imaging system to develop the digitized blot images. Water-control group data were represented as 100% and all other values were expressed relative to control group to detect changes in the expression of the protein of interest in the brain and liver samples.
All statistical analyses were conducted with Graphpad Prism software, with p-values of 0.05 or less being statistically significant. […]

GLT-1 = test: Immunoblot GLT-1 in mPFC-IL, mPFC-PL, NAc-core, NAc-shell (section B); format: in vivo, Male and female alcohol-preferring (P) rats; conditions: 100 mg/kg i.p. 5 days
Procedure: After 24 hours of receiving the last injection, rats were euthanized by CO2 inhalation followed by decapitation with a guillotine. Brains were harvested and immediately frozen on dry ice and stored at −80° C. Cryostat (Leica) was used to isolate the mPFC subregions (mPFC-IL and mPFC-PL), and subregions of the NAc (NAc-core and NAc-shell). Brains were micro-punctured using the stereotaxic coordinates following the Rat Brain Atlas. The isolated brain regions were stored at −80° C. for subsequent protein detection using Western Blot assay.
Immunoblot assays were performed to determine the expression of GLT-1, xCT and β-tubulin in mPFC-IL, mPFC-PL, NAc-core, and NAc-shell of all groups as described previously. Briefly, brain samples were homogenized in lysis buffer supplemented with protease inhibitor and total protein was quantified using protein assay (Bio-Rad, Hercules, CA, USA). Equal amount of the samples was loaded on polyacrylamide gel (10-20%).
Subsequently, proteins were transferred on a PVDF membrane and blocked with 5% milk in Tris-buffered saline Tween-20 (1×TBST) for 30 minutes at room temperature. Membranes were then incubated overnight at 4° C. with one of the following antibodies: rabbit anti-GLT-1 (1:1000, Abcam, AB41621), and/or rabbit anti-xCT (1:1000, Abcam, AB175186). Mouse anti-β-tubulin (1:1000; Cell Signaling D71G5) was used as a loading control antibody. On the following day, membranes were washed five times with 1×TBST followed by incubation with appropriate secondary antibody (1:4000) for 60 minutes at room temperature. Chemiluminescent reagents (Super Signal West Pico, Pierce Inc.) were used to detect proteins using a ChemiDoc imaging system (BioRad, USA).
GLT-1 and xCT expression were normalized against β-tubulin, a control loading protein. Imaging System and ImageJ software version 1.53a were used to quantify and analyze the expression of GLT-1 and xCT in the subregions of the mPFC and NAc. Data from water-control group were represented as 100% and all other values were expressed relative to this control to evaluate the changes in protein expression.
The ratios for treated animals in the ethanol/saline and ethanol/MC-100093 groups were normalized to the mean ratios for the control group (water/saline group). The control ratio was set at 100, and the results from each of the treated groups were expressed as a percentage relative to the water/saline group value of 100%. We normalized the ethanol/saline and ethanol/MC-100093 groups data to water/saline group to reduce any differences of contrast with Western blots for each set of groups (control/water/saline, ethanol/saline, and ethanol/MC-100093 groups).
All statistical analyses were conducted using GraphPad Prism (10). Two-way (mixed) ANOVA followed by Bonferroni multiple comparison post-hoc test was performed to analyze daily ethanol intake, average daily water intake and body weight. One-way ANOVA followed by Newman-Keuls post hoc tests were used to analyze Western blot data. All statistical analyses data were reported as a p<0.05 of significance.

glutamate uptake = conditions: astrocyte-neuron co-culture model, cited from earlier work
[1] = human liver microsomes in vitro; cited from earlier work
[2] = female P rats, vs ethanol-saline and water-saline
[3] = male P rats, vs ethanol-saline and water-saline

SMILES: C[C@@H](O)[C@H]1C(=O)N[C@@H]1[C@@H](C)C(=O)N1CCN(C)CC1 [MC-100093]
- Protein expression of PPAR-α in the NAc-core (PPAR-α): non-significant differences; also recorded: did not detect significant changes
- Protein expression of PPAR-α in the NAc-shell (PPAR-α): non-significant differences; also recorded: did not detect significant changes
- GLT-1 expression in the NAc-core (GLT-1; female P rats): significant upregulation of GLT-1 expression
- GLT-1 expression in the NAc-shell (GLT-1; female P rats): significant upregulation of GLT-1 expression
- GLT-1 expression in the mPFC-IL (GLT-1; [2]): upregulated GLT-1 expression
- GLT-1 expression in the mPFC-PL (GLT-1; [2]): significant upregulation of GLT-1 expression
- GLT-1 expression in mPFC and NAc subregions (summary) (GLT-1; female and male P rats, vs ethanol-saline groups, 100 mg/kg): upregulated GLT-1 and xCT expression in mPFC and NAc subregions; also recorded: increasing GLT-1 and xCT expression in the mPFC and NAc subregions
- GLT-1 expression in the mPFC-IL (GLT-1; male P rats): attenuated ethanol-induced downregulation of GLT-1 expression
- GLT-1 expression in the NAc-core (GLT-1; [3]): significantly increased
- GLT-1 expression in the NAc-shell (GLT-1; [3]): significantly increased
- GLT-1 expression in the mPFC-PL (GLT-1; male P rats, vs ethanol-saline and water-saline, 100 mg/kg): significantly upregulated GLT-1 expression; also recorded: significantly increased
- Enhancement of glutamate uptake (glutamate uptake): 23.5%
- IC50 (glutamate uptake; read-out: IC50 (enhancement of glutamate uptake)): 100 nM
- Stability in liver microsomes [1]: high stability
